This note sets out measurements from patent US8785471B2, “Pharmaceutical composition containing ferulic acid and matrine compounds, the preparation and the use thereof” (Qingdao Qiyuan Bio-Technologies Co., Ltd., priority 2008, dated 2014).

Data set [1] deals with rheumatoid arthritis patients. The settings on record: 30 patients, 200 mg tablets daily, 5 days. The method, then:
Testing composition preparation: The gel containing ferulic acid and matrine (mole ratio 1:1) were prepared according to a pharmaceutical method.
Methods: 30 pairs of rheumatoid arthritis patients; 30 patients participating in the control group with daily administration of 200 mg naproxen tablets; 30 patients participating in the testing group with daily application on the affected parts of the testing gel containing ferulic acid and matrine. Both groups were administered for consecutive 5 days.
Effect observations: obviously effective if both swelling and aches disappear; effective if aches disappear with limited swelling; invalid if both swelling and aches exist.

For another data set, the system named is hepatic stellate cells. Description: Proliferation of hepatic stellate cells (MTT absorbance). In kind it is cell-based, rats. The conditions noted are these: 50 μmol/l, 48 hours, 570 nm, mean ± SD. The method, then: (§1) Materials and reagents: ELISA kit for rats type I collagen, trypsin, fetal bovine serum, etc.
(§2) Methods: Revived hepatic stellate cell (HSC) seeds were placed in a 100 ml plastic incubation flask and incubated in a CO2 incubator (inside 5% CO2, 95% humidity). The medium was discarded when the cells grew into a single layer. Digestion solution (5% trypsin) was added. The digestion solution was removed and centrifuged at 2200 rpm for 7 minutes. The supernatant was discarded, washed and centrifuged with DMEM incubation solution. The cells were suspended in a DMEM solution containing 20% fetal bovine serum, and the cell numbers were counted. The cell suspension was diluted with a DMEM solution and seeded in 96 well culture plate, each well having 100 μl diluted suspension. After 48 hours, the solution was removed and the cells were washed with a DMEM incubation solution containing 10% bovine serum to synchronize the cells at stable phrase. The cells were treated with testing compositions diluted in physiological saline (50 μmol/l). Each treatment tested 6 wells and repeated for 3 times. After 48 hours, incubation was terminated. […] The HSC absorbance at wavelength 570 nm was measured by microplate reader. […] The supernatant was obtained and the type I collagen content was measured according to the instructions in the type I collagen kit.

Data set [2] has as its target T1, blood acetylcholinesterase (Rattus norvegicus, UniProt P37136).
T1 construct: 0.05 ml each diluted composition was pipetted into 0.5 ml diluted rats blood; from tissue; host or cells: rat whole blood, anticoagulated, diluted 10 times with physiological saline
T1 sequence (P37136 32-614): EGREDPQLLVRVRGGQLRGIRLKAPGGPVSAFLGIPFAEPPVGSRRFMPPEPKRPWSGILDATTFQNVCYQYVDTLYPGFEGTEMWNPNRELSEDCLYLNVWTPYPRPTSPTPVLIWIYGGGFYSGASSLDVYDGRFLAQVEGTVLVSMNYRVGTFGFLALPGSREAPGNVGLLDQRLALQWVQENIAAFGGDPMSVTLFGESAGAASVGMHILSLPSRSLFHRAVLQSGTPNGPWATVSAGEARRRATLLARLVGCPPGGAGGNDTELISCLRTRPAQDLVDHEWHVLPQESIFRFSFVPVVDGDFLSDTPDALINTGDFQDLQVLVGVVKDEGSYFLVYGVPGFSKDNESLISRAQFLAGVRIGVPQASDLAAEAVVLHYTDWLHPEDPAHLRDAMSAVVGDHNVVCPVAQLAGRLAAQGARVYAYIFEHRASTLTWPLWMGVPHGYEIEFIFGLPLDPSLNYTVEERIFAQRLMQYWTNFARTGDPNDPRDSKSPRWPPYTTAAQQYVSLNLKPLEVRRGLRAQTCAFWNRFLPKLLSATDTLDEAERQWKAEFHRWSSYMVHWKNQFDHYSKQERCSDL
Description: Anticholinesterase effect on rat blood acetylcholinesterase. It counts as biochemical, rats. The method, then: Methods: 5 ml blood was collected from healthy rats, stored in tubes containing anticoagulants and diluted 10 times with physiological saline (ready for use). The testing compositions were diluted with physiological saline to 0, 5, 10, 20, 40, 80, 160, 320, 640 mg/l concentrations, respectively. 0.05 ml each diluted composition was pipetted into 0.5 ml diluted rats blood, mixed thoroughly and incubated at 37° C. for 1 hour. The activity of blood acetylcholinesterase was measured according to the acetylcholinesterase kit. The half inhibitory concentration (IC50) was calculated.

The subject of data set [3] is type I collagen content of hepatic stellate cells. Kind of data set: Type I collagen content of hepatic stellate cells (ELISA kit). In kind it is cell-based, rats. The settings on record: 50 μmol/l, HSC supernatant; mean ± SD. As to the method: as §1, §2
The subject of data set [4] is mice. Kind of data set: Anti-inflammatory effect, xylene ear swelling in mice. In kind it is in vivo. The settings on record: xylene on right ear, ear coated with 1% composition, 30 minutes later. The method, then: Healthy mice were selected, each group containing 10 mice. After weighing and marking, the right ear of the mice was contacted with xylene cotton ball for 5 seconds, leaving the left ear as control. 10 minutes after proinflammatory treatment, the right ear was coated with testing compositions (1%), control ingredients (individual ferulic acid or oxymatrine) or blank control (physiological saline). 30 minutes later, the mice was sacrificed by cervical dislocation. The same volume of tissues was collected from left ear (control) and fight ear (treated with xylene) by hole puncher (diameter: 6 mm), and weighed. The ear swelling percentage was calculated. Ear swelling percentage (%)=(Weight of right ear−Weight of left ear)/Weight of left ear×100%

For data set [5], the system named is mice. Description: Mice gastrointestinal motility, carbon powder propulsion. In kind it is in vivo. The settings on record: 3 days. From the text:
Materials and reagents: oxymatrine injection (Xinhua Inc., batch No.: 0306003), neostigmine methylsulfate injection (Tianfu Inc., batch No.: 0404131), atropine sulfate injection (Tianfu Inc., batch No.: 0409271), morphine sulfate controlled-release tablets (Mengdi Inc., batach No.: 04082312).
Animals and feeding environment: healthy SPF grade Kunming mice, half male, weight 18-22 g, provided by Lvye Inc., certificate No.: SYXK(LU)20030020. Every 10 mice were placed in one cage. Mice feeding was provided by Shandong experimental animal center. Experimental mice fed in barrier system with filtered air, at the room temperature of 18-22° C. and humidity at 50-60%, with 12 hours light radiation per day.
Methods: The mice were intragastric administrated with testing compositions or controls for consecutive 3 days. Before the last administration, the mice were stopped feeding and supplied with water for 16 hours. 30 minutes after the last administration, the mice were intragastric administrated with 0.2 ml 5% activated carbon suspension. 20 minutes later, the mice were sacrificed by cervical dislocation. The abdominal cavity was opened and bowel was collected from pylorus to ileocecal. The bowel was placed on a tray and straightened. The total length of small intestine was measured, as well as the advanced distance of carbon powder in the intestine from pylorus. The percentage of carbon powder propulsion was calculated by the following formula: percentage of carbon powder propulsion=advanced distance of carbon powder/total length of small intestine×100%

Data set [6] deals with mice. Kind of data set: Analgesic effect, acetic acid writhing test in mice. In kind it is in vivo. The settings on record: intragastric 20 mg/kg for 3 days, 0.6% acetic acid ip, writhing within 15 minutes. The method, then:
Method: Healthy mice were selected, each group containing 10 mice. The mice were intragastric administrated with 20 mg/kg testing compositions or control compositions for consecutive 3 days. 30 minutes after the last administration, the mice were intra-peritoneally (ip) injected with 10 ml/kg of 0.6% acetic acid. The writhing numbers of the mice within 15 minutes were recorded. The analgesic percentage was calculated.
Analgesic percentage(%)=(writhing numbers of blank control group−writhing numbers of testing group)/writhing numbers of blank control group×100%

A further data set relates to patients with rash. Description: Effect on rash in patients. It counts as in vivo. The conditions noted are these: 10 patients, 1% applied on rash area, after 10 minutes. As to the method: Patient selection: 18-25 years old of either gender with rash at both body sides. Each composition was tested on 10 patients. Test was carried out with single-blind and self control. 1% composition or control was applied on rash area at left side of the body, and physiological saline was applied on rash area at the right side. After 10 minutes, the effects were evaluated.
Effect evaluation: Obviously effective if both rash and itching feeling disappear; effective if parts of rash and itching feeling disappear; invalid if both rash and itching feeling keep unchanged.

In data set [7] the test system is mice. Kind of data set: Acute toxicity in mice. It counts as in vivo. The conditions noted are these: 10 mice, 72 hours. As to the method:
Methods: Healthy mice were selected, each group containing 10 mice. The mice were intragastric administrated with testing compositions or controls once; and observed for 72 hours. The deaths were recorded.

Data set [8] relates to quails of fat arteriosclerosis model. Description: Anti-atherosclerosis effect, serum TC and TG in quails. In kind it is in vivo. The conditions noted are these: quail serum, four weeks. From the text: (§3) Testing composition preparation: ferulic acid and oxymatrine were mixed in a mole ratio 1:1 to prepare a solution.
(§4) Methods: According to the method described in reference (Liu et al., 2005. Chinese journal of arteriosclerosis, 13(3): 305-308).
(§5) Test method: 140 male quails were selected and randomly separated into 7 groups: normal control group (healthy quails), modeling control group (fat arteriosclerosis model which is set up by the methods described in reference), positive control group (fat arteriosclerosis model is treated by luofatading 10 mg/kg), ferulic acid control group (tested with ferulic acid 40 mg/kg), large/medium/small dosage testing groups ([…], of testing compositions). Except the normal control group, all the other 6 groups were fat arteriosclerosis models.
(§6) The quails were daily intragastric administrated with testing compositions or controls once per day for consecutive four weeks. The fourth weekend after administration, the content of serum lipid from 10 quails of each group was detected. In the end, pathological examination was conducted on the surviving quails.
Method to detect the content of serum lipid: at the end of the 4th week after administration, feeding was stopped for 12 hours. 2 ml blood was collected from jugular vein. The serum was separated. The contents of serum cholesterol (TC) and triglyceride (TG) were measured according to an enzymatic method.

Data set [9] shares this test system. Kind of data set: Anti-atherosclerosis effect, aortic atherosclerosis degree of quails (pathological examination). In kind it is in vivo. Also noted: Total atherosclerosis score: scale not given here.
Text: as §3, §4, §5, §6

Where two headings read alike, the source gives them in different places.

In data set [1], `COc1ccc2cc([C@H](C)C(=O)O)ccc2c1` [naproxen] registered an Effective cases of 11 cases, an Obviously effective cases of 12 cases and a Total effective percentage of 76.7%.
Usually IC50 stands for the midpoint of a concentration-inhibition curve. Take `O=C1CCC[C@@H]2[C@H]3CCC[N+]4([O-])CCC[C@@H](CN12)[C@@H]34` (stereo partly drawn) [Oxymatrine, oxymatrine]: in the data set with hepatic stellate cells, the Average absorbance is recorded as 0.39 ± 0.17. The compound also gave a concentration for half-maximal inhibition (IC50) in data set [2] of 2780 µM. The “Type I collagen content” value in [3] was 63.42 ± 9.76 µg/L. The compound also showed an Ear swelling percentage in the data set with mice [4] of 133.4%. In addition, the results for the “Percentage of carbon powder propulsion (mean ± SD, %)” value (“Percentage … (mean ± SD, %)” below) in the data set on mice [5] (intragastric 10 mg/kg) and with mice [5] (intragastric 20 mg/kg) were 58.85 ± 13.22% and 67.49 ± 11.68 %, respectively. For the same compound, in the data set on mice [6], the Analgesic percentage came to 29.98%. The “Effective (number of patients)” value with patients with rash amounted to 10.
Regarding `CN(C)C(=O)Oc1cccc([N+](C)(C)C)c1` [Neostigmine, neostigmine], in data set [2] (diluted rat blood, 37° C., 1 hour, read-out: IC50 (converted)), the IC50 is 1640 µM. Further, the “Percentage … (mean ± SD, %)” value in the data set on mice [5] (intragastric 4 mg/kg) was 68.55 ± 4.80 %.
For the compound `O=C1CCC[C@@H]2[C@H]3CCCN4CCC[C@@H](CN12)[C@@H]34` [Matrine, matrine], the Death cases in the data set on mice [7] (single intragastric 500 mg/kg) came out at 10.
In [8] (40 mg/kg intragastric daily), `COc1cc(/C=C\C(=O)O)ccc1O` [Ferulic acid, 4-hydroxy-3-methoxy cinnamic acid] had a TC of 16.88 ± 6.31 mmol/L and a TG of 3.52 ± 0.73 mmol/L. Moreover, the Average absorbance with hepatic stellate cells is listed as 0.42 ± 0.24. Further, in [9] (40 mg/kg), the “Numbers of quails in aortic atherosclerosis degree 0” value was found to be 1, the “Numbers of quails in aortic atherosclerosis degree 1” value came to 4, the “Numbers of quails in aortic atherosclerosis degree 2” value is listed as 6 and the “Numbers of quails in aortic atherosclerosis degree 3” value worked out at 3. In data set [9] (40 mg/kg), the “Numbers of quails in aortic atherosclerosis degree 4” value amounted to 0 and the Total atherosclerosis score is reported as 25. In addition, the “Type I collagen content” value in data set [3] stood at 64.36 ± 11.22 µg/L. In the data set on mice [4], this compound returned an Ear swelling percentage of 164.6%. Moreover, in the data set on mice [5] (intragastric 20 mg/kg), the “Percentage … (mean ± SD, %)” value came to 54.33 ± 10.22%. Moreover, the Analgesic percentage with mice [6] turned out to be 18.30%. For the same compound, in the data set with patients with rash, the “Effective (number of patients)” value is given as 3 and the “Invalid (number of patients)” value was 7. Further, the Death cases in the data set with mice [7] (single intragastric 1000 mg/kg) worked out at 0.
In [8] (10 mg/kg intragastric daily), `CC[C@H](C)C(=O)O[C@H]1C[C@@H](C)C=C2C=C[C@H](C)[C@H](CC[C@@H]3C[C@@H](O)CC(=O)O3)[C@H]21` [Luofatading] gave a TC of 10.19 ± 2.07 mmol/L and a TG of 1.68 ± 0.36 mmol/L. Also, in [9] (10 mg/kg), the “Numbers of quails in aortic atherosclerosis degree 0” value amounted to 0, the “Numbers of quails in aortic atherosclerosis degree 1” value is recorded as 6, the “Numbers of quails in aortic atherosclerosis degree 2” value is 8 and the “Numbers of quails in aortic atherosclerosis degree 3” value worked out at 2. In addition, in [9] (10 mg/kg), the “Numbers of quails in aortic atherosclerosis degree 4” value was 0 and the Total atherosclerosis score worked out at 28.
Consider `O=C1C=CC[C@@H]2[C@H]3CCCN4CCC[C@@H](CN12)[C@@H]34` [Sophocarpine, sophocarpine], for which the Death cases with mice [7] (single intragastric 500 mg/kg) was 10.
